Consider eleven molecules from ChEMBL document CHEMBL2074442, “Recognition of beta-lactam antibiotics by rat peptide transporters, PEPT1 and PEPT2, in LLC-PK1 cells” (Am J Physiol, 1997).

What all share (type): functional, cell-based
Series [1] deals with T1, Solute carrier family 15 member 2 (Rattus norvegicus, UniProt Q63424).
T1 sequence (Q63424 whole entry): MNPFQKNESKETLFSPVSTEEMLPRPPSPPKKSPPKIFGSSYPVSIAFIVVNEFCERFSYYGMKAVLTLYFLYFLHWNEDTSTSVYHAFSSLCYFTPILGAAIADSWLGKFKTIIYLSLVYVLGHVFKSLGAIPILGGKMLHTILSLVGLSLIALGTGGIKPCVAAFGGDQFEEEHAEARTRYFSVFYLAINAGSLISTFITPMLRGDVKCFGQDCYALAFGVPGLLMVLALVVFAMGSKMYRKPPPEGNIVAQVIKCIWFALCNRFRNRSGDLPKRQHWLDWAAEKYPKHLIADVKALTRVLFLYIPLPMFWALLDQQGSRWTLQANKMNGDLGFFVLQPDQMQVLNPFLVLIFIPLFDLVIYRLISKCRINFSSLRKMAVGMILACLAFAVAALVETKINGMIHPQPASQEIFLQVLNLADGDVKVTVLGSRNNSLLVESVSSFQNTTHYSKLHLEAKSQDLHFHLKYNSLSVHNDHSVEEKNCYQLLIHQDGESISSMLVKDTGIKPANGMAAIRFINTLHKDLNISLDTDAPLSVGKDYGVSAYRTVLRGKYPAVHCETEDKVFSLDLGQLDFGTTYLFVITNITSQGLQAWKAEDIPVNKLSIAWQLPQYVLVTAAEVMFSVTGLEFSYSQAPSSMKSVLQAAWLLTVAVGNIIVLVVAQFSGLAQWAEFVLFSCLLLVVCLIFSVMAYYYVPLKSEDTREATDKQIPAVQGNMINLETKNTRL
The series is described as follows: TP_TRANSPORTER: inhibition of Gly-Sar uptake in PEPT2-expressing LLC-PK1 cells.

For series [2], the target named is T2, Solute carrier family 15 member 1 (Rattus norvegicus, UniProt P51574).
T2 sequence (P51574 whole entry): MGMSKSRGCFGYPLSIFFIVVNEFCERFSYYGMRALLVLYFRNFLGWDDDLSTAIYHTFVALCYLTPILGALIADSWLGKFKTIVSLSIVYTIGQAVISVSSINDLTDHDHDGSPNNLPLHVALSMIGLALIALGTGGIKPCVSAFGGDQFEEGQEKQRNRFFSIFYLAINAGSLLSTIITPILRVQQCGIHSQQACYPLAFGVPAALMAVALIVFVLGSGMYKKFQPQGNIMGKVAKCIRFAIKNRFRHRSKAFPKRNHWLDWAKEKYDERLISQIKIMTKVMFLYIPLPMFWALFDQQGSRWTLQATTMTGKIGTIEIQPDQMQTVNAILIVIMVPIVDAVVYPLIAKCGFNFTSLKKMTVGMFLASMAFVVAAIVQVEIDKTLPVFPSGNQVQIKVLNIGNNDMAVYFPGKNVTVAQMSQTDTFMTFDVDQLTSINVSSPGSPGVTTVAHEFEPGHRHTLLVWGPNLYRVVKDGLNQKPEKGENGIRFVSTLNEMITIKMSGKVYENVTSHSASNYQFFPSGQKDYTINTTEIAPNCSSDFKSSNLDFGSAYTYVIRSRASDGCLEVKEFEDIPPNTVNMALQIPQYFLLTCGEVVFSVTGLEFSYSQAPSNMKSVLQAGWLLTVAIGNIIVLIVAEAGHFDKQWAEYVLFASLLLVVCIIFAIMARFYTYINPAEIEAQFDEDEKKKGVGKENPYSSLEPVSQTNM
Kind of series: TP_TRANSPORTER: inhibition of Gly-Sar uptake in PEPT1-expressing LLC-PK1 cells.

Substrate in series [3]: CN(CC(=O)O)C(=O)CN
The series is described as follows: TP_TRANSPORTER: uptake in PEPT1-expressing LLC-PK1 cells.

Substrate in series [4]: CN(CC(=O)O)C(=O)CN
The series is described as follows: TP_TRANSPORTER: uptake in PEPT2-expressing LLC-PK1 cells.

`CC1=C(C(=O)O)N2C(=O)[C@@H](NC(=O)[C@H](N)c3ccccc3)[C@H]2SC1` [CEPHALEXIN ANHYDROUS]: the Ki turned out to be 49 µM in series [1] and 4500 µM in series [2].

Turning to `CC1=C(C(=O)O)N2C(=O)[C@@H](NC(=O)[C@H](N)c3ccc(O)cc3)[C@H]2SC1` [CEFADROXIL], the Ki in series [1] turned out to be 3 µM; in series [2], 2170 µM.

Take `C=CC1=C(C(=O)O)N2C(=O)[C@@H](NC(=O)/C(=N\O)c3csc(N)n3)[C@H]2SC1` [CEFDINIR]: the values for the Ki in series [1] and in series [2] were 20100 µM and 11900 µM, respectively.

On to `CC1(C)S[C@@H]2[C@H](NC(=O)C3(N)CCCCC3)C(=O)N2[C@H]1C(=O)O` [CYCLACILLIN], for which the Ki was found to be 27 µM in series [1] and 168 µM in series [2].

Turning to `CC1(C)S[C@@H]2[C@H](NC(=O)[C@H](N)c3ccc(O)cc3)C(=O)N2[C@H]1C(=O)O` [AMOXICILLIN], the Ki in series [1] turned out to be 179 µM; in series [2], 13000 µM.

Regarding `CC1(C)S[C@@H]2[C@H](NC(=O)[C@H](N)c3ccccc3)C(=O)N2[C@H]1C(=O)O` [AMPICILLIN], the Ki in series [1] is 669 µM; in series [2], 47800 µM.

With `Nc1nc(/C(=C/CC(=O)O)C(=O)N[C@@H]2C(=O)N3C(C(=O)O)=CCS[C@H]23)cs1` [CEFTIBUTEN], the Ki in series [1] was found to be 1340 µM; in series [2], 597 µM.

In the case of `CC1=C(C(=O)O)N2C(=O)[C@@H](NC(=O)[C@H](N)C3=CCC=CC3)[C@H]2SC1` [CEPHRADINE], the Ki in series [1] was 47 µM; in series [2], 8540 µM.

For `C=CC1=C(C(=O)O)N2C(=O)[C@@H](NC(=O)/C(=N\OCC(=O)O)c3csc(N)n3)[C@H]2SC1` [CEFIXIME], the Ki came out at 11900 µM in series [1] and 6920 µM in series [2].

B1: Solute carrier family 15 member 1 (Rattus norvegicus), P51574 (protein)
chain: T2 sequence (P51574 whole entry)
As for B1, the Km in series [3] turned out to be 1100 µM.

B2: Solute carrier family 15 member 2 (Rattus norvegicus), Q63424 (protein)
chain: T1 sequence (Q63424 whole entry)
As to B2, in series [4], the Km came to 110 µM.

The Ki is the dissociation constant of the complex between target and ligand, obtained from inhibition or displacement. What is called Km is the concentration of substrate that gives half-maximal velocity.
